{"source": "patent US20170355708A1", "about": "“POTASSIUM CHANNEL MODULATORS” (Cadent Therapeutics, Inc., priority 2016, published 2017)"}
{"target": "T1, hSK2 channels (Homo sapiens, UniProt P0DP23+Q9H2S1)", "T1 construct": "expressed in transfected cells; host or cells: HEK293", "assay": "Whole-cell patch-clamp recording of SK2 channel current (SC100)", "assay_type": "cell-based", "conditions": "Stimulating Concentration required for increasing the baseline current by 100%; HEK293 cells expressing hSK2; Table 3", "experimental": "The biological activity of certain compounds were determined as follows. The ionic current through small-conductance Ca^2+-activated K^+ channels (SK channels, subtype 2) is recorded using the whole-cell configuration of the patch-clamp technique in a classic patch-clamp set-up using HEK293 tissue culture cells expressing hSK2 channels as described in Kasumu et. al., Chemistry & Biology 19, 1340-1353, Oct. 26, 2012.\nThe SC100 value determined is defined as the Stimulating Concentration required for increasing the baseline current by 100%."}
{"compound": "Cc1cc(C)n(-c2cc(N3CCOC(C(N)=O)C3)nc(Nc3ccc(F)c(F)c3)n2)n1", "note": "(racemic) [Compound 129, 4-(2-((3,4-difluorophenyl)amino)-6-(3,5-dimethyl-1H-pyrazol-1-yl)pyrimidin-4-yl)morpholine-2-carboxamide]", "SC100 uM": "+++ (+++ means <200 nM)"}
{"compound": "Cc1cc(C)n(-c2nc(Nc3ccc(F)c(F)c3)cc(N3CCO[C@@H](CO)C3)n2)n1", "note": "(single isomer, unassigned) [Compound 121, (+)-(4-(6-((3,4-difluorophenyl)amino)-2-(3,5-dimethyl-1H-pyrazol-1-yl)pyrimidin-4-yl)morpholin-2-yl) methanol]", "SC100 uM": "+++ (+++ means <200 nM)"}
{"compound": "Cc1cc(C)n(-c2nc(Nc3ccc(F)c(F)c3)cc(N3CCO[C@H](CO)C3)n2)n1", "note": "(single isomer, unassigned) [Compound 122, (−)-(4-(6-((3,4-difluorophenyl)amino)-2-(3,5-dimethyl-1H-pyrazol-1-yl)pyrimidin-4-yl)morpholin-2-yl)methanol]", "SC100 uM": "++ (++ means 200 nM-1000 nM)"}
{"compound": "Cc1cc(C)n(-c2nc(Nc3ccc(Cl)cc3)cc(N[C@H](C)C(N)=O)n2)n1", "note": "(single isomer, unassigned) [Compound 123, (+)-2-((6-((4-chlorophenyl)amino)-2-(3,5-dimethyl-1H-pyrazol-1-yl)pyrimidin-4-yl)amino)propanamide]", "SC100 uM": "++ (++ means 200 nM-1000 nM)"}
{"compound": "Cc1cc(C)n(-c2nc(Nc3ccc(Cl)cc3)cc(N[C@@H](C)C(N)=O)n2)n1", "note": "(single isomer, unassigned) [Compound 124, (−)-2-((6-((4-chlorophenyl)amino)-2-(3,5-dimethyl-1H-pyrazol-1-yl)pyrimidin-4-yl)amino)propanamide]", "SC100 uM": "++ (++ means 200 nM-1000 nM)"}
{"compound": "Cc1cc(C)n(-c2nc(Nc3ccc(F)cc3F)cc(N3CCN[C@@H](C(N)=O)C3)n2)n1", "note": "(single isomer, unassigned) [Compound 125, (−)-4-(6-((2,4-difluorophenyl)amino)-2-(3,5-dimethyl-1H-pyrazol-1-yl)pyrimidin-4-yl)piperazine-2-carboxamide]", "SC100 uM": "++ (++ means 200 nM-1000 nM)"}
{"compound": "Cc1cc(C)n(-c2nc(Nc3ccc(F)cc3F)cc(N3CCN[C@H](C(N)=O)C3)n2)n1", "note": "(single isomer, unassigned) [Compound 128, (+)-4-(6-((2,4-difluorophenyl)amino)-2-(3,5-dimethyl-1H-pyrazol-1-yl)pyrimidin-4-yl)piperazine-2-carboxamide]", "SC100 uM": "+ (+ means >1 uM)"}
{"compound": "Cc1cc(C)n(-c2cc(N3CCO[C@H](C(N)=O)C3)nc(Nc3ccc(F)c(F)c3)n2)n1", "note": "(single isomer, unassigned) [Compound 131, (+)-4-(2-((3,4-difluorophenyl)amino)-6-(3,5-dimethyl-1H-pyrazol-1-yl)pyrimidin-4-yl)morpholine-2-carboxamide]", "SC100 uM": "+++ (+++ means <200 nM)"}
{"compound": "Cc1cc(C)n(-c2cc(N3CCO[C@@H](C(N)=O)C3)nc(Nc3ccc(F)c(F)c3)n2)n1", "note": "(single isomer, unassigned) [Compound 132, (−)-4-(2-((3,4-difluorophenyl)amino)-6-(3,5-dimethyl-1H-pyrazol-1-yl)pyrimidin-4-yl)morpholine-2-carboxamide]", "SC100 uM": "+++ (+++ means <200 nM)"}
{"compound": "Cc1cc(C)n(-c2cc(N3C[C@@H]4C[C@H]3CN4)nc(Nc3ccc(F)cc3F)n2)n1", "note": "(stereo in doubt) [Compound 106, 4-((1S,4S)-2,5-diazabicyclo[2.2.1]heptan-2-yl)-N-(2,4-difluorophenyl)-6-(3,5-dimethyl-1H-pyrazol-1-yl)pyrimidin-2-amine]", "SC100 uM": "++ (++ means 200 nM-1000 nM)"}
{"compound": "Cc1cc(C)n(-c2cc(N3C[C@@H]4C[C@H]3CN4)nc(Nc3ccc(F)c(F)c3)n2)n1", "note": "(stereo in doubt) [Compound 109, 4-((1S,4S)-2,5-diazabicyclo[2.2.1]heptan-2-yl)-N-(3,4-difluorophenyl)-6-(3,5-dimethyl-1H-pyrazol-1-yl)pyrimidin-2-amine]", "SC100 uM": "++ (++ means 200 nM-1000 nM)"}
{"compound": "CC(=O)N1CCN(c2cc(Nc3ccc(F)c(F)c3)nc(-n3nc(C)cc3C)n2)CC1", "note": "[Compound 100, 1-(4-(6-((3,4-difluorophenyl)amino)-2-(3,5-dimethyl-1H-pyrazol-1-yl)pyrimidin-4-yl)piperazin-1-yl)ethan-1-one]", "SC100 uM": "+++ (+++ means <200 nM)"}
{"compound": "CC(=O)N1CCN(c2cc(-n3nc(C)cc3C)nc(Nc3ccc(F)c(F)c3)n2)CC1", "note": "[Compound 101, 1-(4-(2-((3,4-difluorophenyl)amino)-6-(3,5-dimethyl-1H-pyrazol-1-yl)pyrimidin-4-yl)piperazin-1-yl)ethan-1-one]", "SC100 uM": "+++ (+++ means <200 nM)"}
{"compound": "CC(=O)N1CCN(c2cc(Nc3ccc(F)cc3)nc(-n3nc(C)cc3C)n2)CC1", "note": "[Compound 102, 1-(4-(2-(3,5-dimethyl-1H-pyrazol-1-yl)-6-((4-fluorophenyl)amino)pyrimidin-4-yl)piperazin-1-yl)ethan-1-one]", "SC100 uM": "++ (++ means 200 nM-1000 nM)"}
{"compound": "CC(=O)N1CCN(c2cc(-n3nc(C)cc3C)nc(Nc3ccc(F)cc3)n2)CC1", "note": "[Compound 103, 1-(4-(6-(3,5-dimethyl-1H-pyrazol-1-yl)-2-((4-fluorophenyl)amino)pyrimidin-4-yl)piperazin-1-yl)ethan-1-one]", "SC100 uM": "+++ (+++ means <200 nM)"}
{"compound": "CC(=O)N1CCN(c2cc(-n3nc(C)cc3C)nc(Nc3ccc(F)cc3F)n2)CC1", "note": "[Compound 104, 1-(4-(2-((2,4-difluorophenyl)amino)-6-(3,5-dimethyl-1H-pyrazol-1-yl)pyrimidin-4-yl)piperazin-1-yl)ethan-1-one]", "SC100 uM": "++ (++ means 200 nM-1000 nM)"}
{"compound": "CC(=O)N1CCN(c2cc(Nc3ccc(F)cc3F)nc(-n3nc(C)cc3C)n2)CC1", "note": "[Compound 105, 1-(4-(6-((2,4-difluorophenyl)amino)-2-(3,5-dimethyl-1H-pyrazol-1-yl)pyrimidin-4-yl)piperazin-1-yl)ethan-1-one]", "SC100 uM": "++ (++ means 200 nM-1000 nM)"}
{"compound": "Cc1cc(C)n(-c2cc(N3CC4(COC4)C3)nc(Nc3ccc(F)cc3F)n2)n1", "note": "[Compound 107, N-(2,4-difluorophenyl)-4-(3,5-dimethyl-1H-pyrazol-1-yl)-6-(2-oxa-6-azaspiro[3.3]heptan-6-yl)pyrimidin-2-amine]", "SC100 uM": "+ (+ means >1 uM)"}
{"compound": "Cc1cc(C)n(-c2cc(N3CC4(COC4)C3)nc(Nc3ccc(F)c(F)c3)n2)n1", "note": "[Compound 108, N-(3,4-difluorophenyl)-4-(3,5-dimethyl-1H-pyrazol-1-yl)-6-(2-oxa-6-azaspiro[3.3]heptan-6-yl)pyrimidin-2-amine]", "SC100 uM": "++ (++ means 200 nM-1000 nM)"}
{"compound": "Cc1cc(C)n(-c2cc(N3CCNC(C(N)=O)C3)nc(Nc3ccc(F)cc3F)n2)n1", "note": "(stereo not drawn) [Compound 110, 4-(2-((2,4-difluorophenyl)amino)-6-(3,5-dimethyl-1H-pyrazol-1-yl)pyrimidin-4-yl)piperazine-2-carboxamide]", "SC100 uM": "++ (++ means 200 nM-1000 nM)"}
{"compound": "Cc1cc(C)n(-c2nc(Nc3ccc(F)c(F)c3)cc(N3CC4(COC4)C3)n2)n1", "note": "[Compound 111, N-(3,4-difluorophenyl)-2-(3,5-dimethyl-1H-pyrazol-1-yl)-6-(2-oxa-6-azaspiro[3.3]heptan-6-yl)pyrimidin-4-amine]", "SC100 uM": "+++ (+++ means <200 nM)"}
